The results in this text go back to ChEMBL document CHEMBL1201862, “PubChem BioAssay data set” (2004).

Molecules are shown by their SMILES.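 Briefly, cells in 96-well plates were exposed to five compound concentrations for 48 h, and endpoints were estimated by linear interpolation. GI50: concentration for 50% inhibition of growth.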 Calls of active or inactive are those of the source. Rule as the data show it: active = GI50 up to about 1.1 µM and inactive = higher. Bounds are passed on as bounds.

Among the test systems are A549; ACHN; HCT-15; HOP-92; HT-29; Hs-578T; IGROV-1; MDA-N; OVCAR-5; OVCAR-8; RPMI-8226; SF-268; SF-539; SK-MEL-2; SN12C; SNB-75; T47D; U-251; UACC-62.
What all share (assay): NCI tumour cell line growth inhibition, 48 h

For `C=C1C(=O)C[C@H]2C(=C)C(=O)O[C@@H]2C2C1CC[C@@]2(C)O` (some centres undefined), the GI50 in the test with A549 is 44.4 µM (inactive); in the test with ACHN, 12.2 µM (inactive); in the test with HCT-15 it was 17.7 µM; in the test on HOP-92 it was 26.4 µM (inactive); with HT-29 it was 20 µM (inactive); in the test on Hs-578T, 26.9 µM (inactive). For the same molecule, the GI50 in the test with IGROV-1 was 33.1 µM (inactive); in the test with MDA-N, 29.7 µM (inactive); in the test on OVCAR-5 it was 32.8 µM (inactive); in the test with OVCAR-8, 31.7 µM (inactive); in the test on RPMI-8226, 7.98 µM (inactive); in the test on SF-268, > 100 µM (inactive). Further, the GI50 in the test on SF-539 is 26.8 µM (inactive); in the test with SK-MEL-2 it was 21.5 µM (inactive); with SN12C, 42.6 µM (inactive); in the test on SNB-75, > 100 µM (inactive); in the test on T47D, 28.2 µM (inactive); in the test with U-251, 45.6 µM (inactive). Moreover, in the test on UACC-62, the GI50 is 14.9 µM (inactive).

For `BrCC[N+]12CC[N+](CCBr)(CC1)C2`, the GI50 in the test with A549 is > 100 µM (inactive); with ACHN, > 100 µM (inactive); in the test on HCT-15, > 100 µM; with HOP-92 it was > 100 µM (inactive); in the test on HT-29 it was > 100 µM (inactive); in the test on Hs-578T, > 100 µM (inactive). In addition, the GI50 in the test with IGROV-1, in the test with MDA-N, with OVCAR-5, in the test with OVCAR-8, in the test with RPMI-8226 and with SF-268 was > 100 µM (inactive) throughout. In addition, the GI50 in the test with SF-539, in the test with SK-MEL-2, in the test with SN12C, in the test on SNB-75, with T47D and with U-251 was > 100 µM (inactive) throughout. For the same molecule, the GI50 with UACC-62 was > 100 µM (inactive).

Turning to `COc1ccc(C(=O)Cn2c(C(=O)/C=C/c3ccco3)nc3ccccc32)cc1`, the GI50 in the test on A549 was 42.8 µM (inactive); in the test with ACHN, 42.8 µM (inactive); in the test with HCT-15, 33.3 µM; in the test with HOP-92, 51.4 µM (inactive); with HT-29, 36.6 µM (inactive); in the test on Hs-578T, 25.3 µM (inactive). Moreover, the GI50 with IGROV-1 is 44.1 µM (inactive); in the test on MDA-N it was 26 µM (inactive); in the test with OVCAR-5, > 100 µM (inactive); in the test with RPMI-8226, 19.3 µM (inactive); in the test on SF-268, 24.5 µM (inactive); in the test on SF-539, 34 µM (inactive). Further, the GI50 in the test on SK-MEL-2 is 17.5 µM (inactive); in the test on SN12C it was 39.1 µM (inactive); in the test with SNB-75, 76.6 µM (inactive); with T47D, 66.7 µM (inactive); with U-251 it was 32.7 µM (inactive); in the test on UACC-62 it was 27.4 µM (inactive).

`O=C(O)[C@@H]1NC[C@H]2C(Br)=NO[C@H]21`: the GI50 in the test with A549 was > 100 µM (inactive); in the test on ACHN, > 100 µM (inactive); in the test with HCT-15 it was > 100 µM; in the test with HOP-92 it was > 100 µM (inactive); in the test with HT-29, > 100 µM (inactive); in the test with Hs-578T, > 100 µM (inactive). The GI50 in the test with IGROV-1, in the test on MDA-N, in the test on OVCAR-5, with OVCAR-8, in the test on RPMI-8226 and with SF-268 was > 100 µM (inactive) in each case. Also, the GI50 in the test with SK-MEL-2, with SN12C, in the test on SNB-75, in the test on T47D, with U-251 and with UACC-62 was > 100 µM (inactive) each time.

Turning to `CCOC(=O)c1c(SCCO)n(-c2ccccc2)c(=S)n(-c2ccccc2)c1=O`, the GI50 in the test on A549 was > 100 µM (inactive); with ACHN it was > 100 µM (inactive); in the test with HCT-15, > 100 µM; in the test on HOP-92, > 100 µM (inactive); in the test on HT-29, > 100 µM (inactive); in the test on Hs-578T, > 100 µM (inactive). Further, the GI50 in the test with IGROV-1, in the test on MDA-N, in the test on OVCAR-5, with OVCAR-8, in the test with RPMI-8226 and with SF-268 was > 100 µM (inactive) throughout. In addition, the GI50 with SK-MEL-2, in the test on SN12C, with SNB-75, in the test on T47D, with U-251 and with UACC-62 was > 100 µM (inactive) throughout.

Consider `C=CC(CBr)CCC(Br)C(C)(C)Br` (centres undefined), for which the GI50 was > 10 µM (inactive) in the test with A549; > 10 µM (inactive) in the test with ACHN; > 10 µM in the test with HCT-15; > 10 µM (inactive) in the test on HOP-92; > 10 µM (inactive) with HT-29; > 10 µM (inactive) with Hs-578T. For the same molecule, the GI50 in the test on IGROV-1, in the test with MDA-N, in the test on OVCAR-5, in the test with OVCAR-8, in the test with RPMI-8226 and in the test on SF-268 was > 10 µM (inactive) each time. The GI50 with SF-539, in the test with SK-MEL-2, in the test on SN12C, in the test on SNB-75, in the test on T47D and in the test on U-251 was > 10 µM (inactive) in each case.

Regarding `CC(=O)Nc1ccc(-c2nc3ccccc3s2)cc1O`, the GI50 is 40.1 µM (inactive) in the test on A549; 27.3 µM (inactive) with ACHN; 41.2 µM in the test with HCT-15; 65.9 µM (inactive) in the test on HOP-92; 34.7 µM (inactive) in the test with HT-29; 50.1 µM (inactive) with Hs-578T. In addition, the GI50 with IGROV-1 is 20.9 µM (inactive); in the test with MDA-N, 29.6 µM (inactive); in the test with OVCAR-5, 23 µM (inactive); in the test with OVCAR-8, 19.8 µM (inactive); with RPMI-8226, 21 µM (inactive); with SF-268, 27.8 µM (inactive). Moreover, the GI50 in the test with SK-MEL-2 is 49.1 µM (inactive); in the test with SN12C it was 30.4 µM (inactive); with SNB-75, 24.8 µM (inactive); with T47D it was 36.1 µM (inactive); with U-251 it was 37.4 µM (inactive); in the test on UACC-62, 18.1 µM (inactive).

On to `O=C(/C=C\c1ccc(Cl)cc1Cl)c1cccs1`, for which the GI50 in the test with A549 is 24.9 µM (inactive); in the test with ACHN, 14.7 µM (inactive); in the test on HCT-15, 14.4 µM; in the test on HOP-92, 26.4 µM (inactive); in the test on HT-29, 23.4 µM (inactive); in the test on Hs-578T, 24.8 µM (inactive). Further, the GI50 with MDA-N is 16.6 µM (inactive); in the test on OVCAR-5, 20 µM (inactive); in the test with OVCAR-8, 12 µM (inactive); with RPMI-8226, 3.61 µM (inactive); in the test on SF-268, 23.4 µM (inactive); in the test with SF-539 it was 19.8 µM (inactive). Further, the GI50 in the test with SK-MEL-2 is 18.9 µM (inactive); in the test with SN12C, 17.4 µM (inactive); in the test with SNB-75 it was 25.2 µM (inactive); in the test with T47D it was 21.9 µM (inactive); in the test with UACC-62, 14.7 µM (inactive).

For `CCC1(CC)CC(=NNS(=O)(=O)c2ccc(C)cc2)C1`, the GI50 in the test with A549 is > 100 µM (inactive); in the test on ACHN, > 100 µM (inactive); in the test with HCT-15, > 100 µM; in the test with HOP-92, > 100 µM (inactive); with HT-29, > 100 µM (inactive); in the test on Hs-578T, > 100 µM (inactive). The GI50 in the test with IGROV-1, with MDA-N, with OVCAR-5, in the test with OVCAR-8, in the test on SF-268 and in the test with SF-539 was > 100 µM (inactive) throughout. The GI50 in the test with SK-MEL-2, in the test on SN12C, in the test on SNB-75, in the test on T47D, in the test on U-251 and in the test with UACC-62 was > 100 µM (inactive) in each case.

`CCCCCCCCCCCCC(O)C(=O)O` (centres undefined): the GI50 in the test on A549 is > 100 µM (inactive); in the test with ACHN, > 100 µM (inactive); with HCT-15, > 100 µM; with HOP-92, > 100 µM (inactive); in the test with HT-29, > 100 µM (inactive); in the test on Hs-578T it was > 100 µM (inactive). In addition, the GI50 with IGROV-1, in the test on MDA-N, in the test with OVCAR-5, with OVCAR-8, in the test on RPMI-8226 and in the test with SF-539 was > 100 µM (inactive) in each case. Further, the GI50 with SK-MEL-2, with SN12C, in the test with SNB-75, in the test on T47D, with U-251 and in the test on UACC-62 was > 100 µM (inactive) in each case.

`N#Cc1c(N2CCC(O)C2)c2ccccc2n2c1nc1ccccc12` (centres undefined): the GI50 in the test with A549 was > 100 µM (inactive); with ACHN, 18.2 µM (inactive); in the test on HCT-15, > 100 µM; in the test with HOP-92, 41.1 µM (inactive); with HT-29, > 100 µM (inactive); in the test with Hs-578T, 29.2 µM (inactive). The GI50 with IGROV-1 is 69.2 µM (inactive); with MDA-N, > 100 µM (inactive); in the test with OVCAR-5, > 100 µM (inactive); with OVCAR-8, 45.7 µM (inactive); in the test with RPMI-8226 it was > 100 µM (inactive); with SF-268, 43.7 µM (inactive). The GI50 in the test with SF-539 is 54.8 µM (inactive); in the test on SK-MEL-2, 43.4 µM (inactive); in the test on SN12C, 72.4 µM (inactive); in the test with SNB-75 it was 25.1 µM (inactive); in the test with T47D, 64.3 µM (inactive); with UACC-62, > 100 µM (inactive).
